From patent publication US7094895B2, “Tyrosyl derivatives and their use as P2X7 receptor modulators” (King Pharmaceuticals Research & Development, Inc., priority 2001, dated 2006)

System: Adriamycin-resistant cells (HL-60)
Test: not given
Conditions: KN62 2 μM (non-cytotoxic), Adriamycin-resistant HL-60 cells; cited from earlier work
In the case of `CN([C@@H](Cc1ccc(OS(=O)(=O)c2cccc3cnccc23)cc1)C(=O)N1CCN(c2ccccc2)CC1)S(=O)(=O)c1cccc2cnccc12` [KN62, 1-N,0-(bis(1,5-isoquinolinesulfonyl)-N-methyl-L-tyrosyl)-4-phenylpiperazine], the “enhancement of VP-16 induced topoisomerase II-mediated DNA cleavable complex formation” value is listed as 2- to 4 fold.

Molecular target: T1, P2X7 receptor (Homo sapiens, UniProt Q99572)
T1 sequence (Q99572 1-595): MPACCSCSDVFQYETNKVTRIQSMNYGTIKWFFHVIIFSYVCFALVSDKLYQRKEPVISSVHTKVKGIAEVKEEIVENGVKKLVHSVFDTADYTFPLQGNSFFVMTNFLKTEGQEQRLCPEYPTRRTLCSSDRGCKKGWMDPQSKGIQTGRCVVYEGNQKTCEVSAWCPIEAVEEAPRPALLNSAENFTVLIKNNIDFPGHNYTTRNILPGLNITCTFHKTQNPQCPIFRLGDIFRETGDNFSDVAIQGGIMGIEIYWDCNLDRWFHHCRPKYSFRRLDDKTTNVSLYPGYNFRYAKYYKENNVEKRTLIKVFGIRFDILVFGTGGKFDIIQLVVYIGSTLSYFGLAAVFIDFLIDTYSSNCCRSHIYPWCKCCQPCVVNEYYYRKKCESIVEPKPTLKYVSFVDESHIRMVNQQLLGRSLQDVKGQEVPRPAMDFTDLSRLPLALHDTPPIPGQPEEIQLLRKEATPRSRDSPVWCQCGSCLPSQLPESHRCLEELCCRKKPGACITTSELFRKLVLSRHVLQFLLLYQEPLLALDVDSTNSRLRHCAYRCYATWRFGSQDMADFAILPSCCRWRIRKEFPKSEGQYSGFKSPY
Test: not given
Conditions: at the concentration of 500 nM; cited from earlier work
For `CN([C@@H](Cc1ccc(OS(=O)(=O)c2cccc3cnccc23)cc1)C(=O)N1CCN(c2ccccc2)CC1)S(=O)(=O)c1cccc2cnccc12` [KN62, 1-N,0-(bis(1,5-isoquinolinesulfonyl)-N-methyl-L-tyrosyl)-4-phenylpiperazine], the “inhibition of the P2X7 receptor” value is given as “complete inhibition”.

Molecular target: T1, P2X7 receptor
Test: Inhibition of ATP-induced calcium influx in human monocytes (fura-2/AM)
Assay type: cell-based
Design: endogenous in cells; host or cells: human monocytes
Conditions: inhibiting calcium influx in human monocytes in the presence of 1 mM ATP; read-out: P2X7 Antagonist Activity IC50
Protocol: Table 1 illustrates the IC50 values for compounds toward inhibiting calcium influx in human monocytes in the presence of 1 mM ATP.
Ca^2+ measurements. Changes in Ca^2+ were measured with the fluorescent indicator fura-2/AM (Molecular Probes, Inc., Eugene, Oreg.) as described previously.^32 Briefly, cells were loaded with […] of fura-2/AM and incubated in a thermostat-controlled (37° C.) and magnetically stirred fluorometer cuvette (model LS50, Perkin-Elmer Ltd., Beaconsfield, UK). Intracellular Ca^2+ concentration was determined with the 340/380 excitation ratio at an emission wavelength of 500 nm. All experiments were repeated three times.
With “1-[(S)-N,O-bis-(isoquinolinesulfonyl)-N-methyl-tyrosyl]-4-(2,3-dimethylphenyl)-piperazine” the IC50 was 1120 nM.
“1-[(S)-N,O-bis-(isoquinolinesulfonyl)-N-methyl-tyrosyl]-4-(2-chlorophenyl)-piperazine” gave an IC50 of 15.8 nM.
For “1-[(S)-N,O-bis-(isoquinolinesulfonyl)-N-methyl-tyrosyl]-4-(2-methoxy-phenyl)-piperazine”, the IC50 was 84.1 nM.
“1-[(S)-N,O-bis-(isoquinolinesulfonyl)-N-methyl-tyrosyl]-4-(3,4-dichloro-phenyl)-piperazine” showed an IC50 of 33.9 nM.
“1-[(S)-N,O-bis-(isoquinolinesulfonyl)-N-methyl-tyrosyl]-4-(3-chlorophenyl)-piperazine” gave an IC50 of 14.1 nM.
“1-[(S)-N,O-bis-(isoquinolinesulfonyl)-N-methyl-tyrosyl]-4-(3-trifluoromethyl-phenyl)-piperazine” gave an IC50 of 31.1 nM.
“1-[(S)-N,O-bis-(isoquinolinesulfonyl)-N-methyl-tyrosyl]-4-(4-aminophenyl)-piperazine” showed an IC50 of 101 nM.
Work on “1-[(S)-N,O-bis-(isoquinolinesulfonyl)-N-methyl-tyrosyl]-4-(4-fluorophenyl)-piperazine” yielded an IC50 of 1.33 nM.
For “1-[(S)-N,O-bis-(isoquinolinesulfonyl)-N-methyl-tyrosyl]-4-(4-methoxy-phenyl)-piperazine”, the IC50 was 132 nM.
“1-[(S)-N,O-bis-(isoquinolinesulfonyl)-N-methyl-tyrosyl]-4-(4-nitrophenyl)-piperazine” gave an IC50 of 5.76 nM.
“1-[(S)-N,O-bis-(isoquinolinesulfonyl)-N-methyl-tyrosyl]-4-(p-tolyl)-piperazine” showed an IC50 of 13.5 nM.
In the case of “1-[(S)-N,O-bis-(isoquinolinesulfonyl)-N-methyl-tyrosyl]-4-(pyridin-2-yl)-piperazine”, the IC50 is reported as 170 nM.
With “1-[(S)-N,O-bis-(isoquinolinesulfonyl)-N-methyl-tyrosyl]-4-(pyrimidin-2-yl)-piperazine” the IC50 was 79.8 nM.
In the case of “1-[(S)-N,O-bis-(isoquinolinesulfonyl)-N-methyl-tyrosyl]-4-benzylpiperazine”, the IC50 is reported as 21 nM.
With “1-[(S)-N,O-bis-(isoquinolinesulfonyl)-N-methyl-tyrosyl]-4-benzylpiperidine” the IC50 was 65.3 nM.
Molecule “1-[(S)-N,O-bis-(isoquinolinesulfonyl)-N-methyl-tyrosyl]-4-o-tolyl-piperazine” has an IC50 of 15.1 nM.
Molecule “1-[(S)-N,O-bis-(isoquinolinesulfonyl)-N-methyl-tyrosyl]-4-phenethyl-piperazine” has an IC50 of 600 nM.
For “1-[(S)-N,O-bis-(isoquinolinesulfonyl)tyrosyl]-4-(4-fluorophenyl)-piperazine”, the IC50 was 6.02 nM.
“1-[(S)-N,O-bis-(isoquinolinesulfonyl)tyrosyl]-4-(o-tolyl)-piperazine” showed an IC50 of 28.8 nM.
In the case of `Cc1ccccc1N1CCN(C(=O)[C@H](Cc2ccc(OS(=O)(=O)c3cccnc3)cc2)N(C)S(=O)(=O)c2cccnc2)CC1` [1-[(S)-N,O-bis-(3-pyridinesulfonyl)-N-methyl-tyrosyl]-4-(2-methylphenyl)-piperazine], the IC50 is reported as 9120 nM.
`CN([C@@H](Cc1ccc(OS(=O)(=O)c2cccnc2)cc1)C(=O)N1CCN(c2ccccc2)CC1)S(=O)(=O)c1cccnc1` [1-[(S)-N,O-bis-(3-pyridinesulfonyl)-N-methyl-tyrosyl]-4-phenyl-piperazine] showed an IC50 of 955 nM.
For `CN([C@@H](Cc1ccc(OS(=O)(=O)c2cccc3cnccc23)cc1)C(=O)N1CCN(c2ccccc2F)CC1)S(=O)(=O)c1cccc2cnccc12` [1-[(S)-N,O-bis-(isoquinolinesulfonyl)-N-methyl-tyrosyl]-4-(2-fluorophenyl)-piperazine]], the IC50 was 18.5 nM.
Molecule `CC(=O)c1ccc(N2CCN(C(=O)[C@H](Cc3ccc(OS(=O)(=O)c4cccc5cnccc45)cc3)N(C)S(=O)(=O)c3cccc4cnccc34)CC2)cc1` [1-[(S)-N,O-bis-(isoquinolinesulfonyl)-N-methyl-tyrosyl]-4-(4-acetylphenyl)-piperazine]] has an IC50 of 70.8 nM.
Molecule `CN([C@@H](Cc1ccc(OS(=O)(=O)c2cccc3cnccc23)cc1)C(=O)N1CCN(c2ccc(Cl)cc2)CC1)S(=O)(=O)c1cccc2cnccc12` [1-[(S)-N,O-bis-(isoquinolinesulfonyl)-N-methyl-tyrosyl]-4-(4-chlorophenyl)-piperazine]] has an IC50 of 105 nM.
Molecule `CN([C@@H](Cc1ccc(OS(=O)(=O)c2cccc3cnccc23)cc1)C(=O)N1CCN(c2ccc(C#N)cc2)CC1)S(=O)(=O)c1cccc2cnccc12` [1-[(S)-N,O-bis-(isoquinolinesulfonyl)-N-methyl-tyrosyl]-4-(4-cyanophenyl)-piperazine]] has an IC50 of 97.7 nM.
`CN([C@@H](Cc1ccc(OS(=O)(=O)c2cccc3cnccc23)cc1)C(=O)N1CCN(C(=O)c2ccc(F)cc2)CC1)S(=O)(=O)c1cccc2cnccc12` [1-[(S)-N,O-bis-(isoquinolinesulfonyl)-N-methyl-tyrosyl]-4-(4-fluorobenzoyl)-piperazine]] gave an IC50 of 380 nM.
For `CN([C@@H](Cc1ccc(OS(=O)(=O)c2cccc3cnccc23)cc1)C(=O)N1CCN(Cc2ccc(F)cc2)CC1)S(=O)(=O)c1cccc2cnccc12` [1-[(S)-N,O-bis-(isoquinolinesulfonyl)-N-methyl-tyrosyl]-4-(4-fluorobenzyl)-piperazine]], the IC50 was 5.8 nM.
`CN([C@@H](Cc1ccc(OS(=O)(=O)c2cccc3cnccc23)cc1)C(=O)N1CCN(c2ccc(I)cc2)CC1)S(=O)(=O)c1cccc2cnccc12` [1-[(S)-N,O-bis-(isoquinolinesulfonyl)-N-methyl-tyrosyl]-4-(4-iodophenyl)-piperazine]] gave an IC50 of 176 nM.
Work on `CN([C@@H](Cc1ccc(OS(=O)(=O)c2cccc3cnccc23)cc1)C(=O)N1CCN(Cc2ccc([N+](=O)[O-])cc2)CC1)S(=O)(=O)c1cccc2cnccc12` [1-[(S)-N,O-bis-(isoquinolinesulfonyl)-N-methyl-tyrosyl]-4-(4-nitrobenzyl)-piperazine]] yielded an IC50 of 12.3 nM.
For `CN([C@@H](Cc1ccc(OS(=O)(=O)c2cccc3cnccc23)cc1)C(=O)N1CCN(c2ccccc2)CC1)S(=O)(=O)c1cccc2cnccc12` [KN62, 1-N,0-(bis(1,5-isoquinolinesulfonyl)-N-methyl-L-tyrosyl)-4-phenylpiperazine], the IC50 was 51 nM.
